Patent US6472348B1, “Pyridone derivatives and herbicides” (Kumiai Chemical Industry Co., Ltd., priority 1996, dated 2002)

Columns and labels:
Format in all cases: in vivo
[1] = tested on: barnyardgrass (Ec); test: Test Example 1: herbicidal effects by paddy field soil treatment; details: 100 g of the active ingredient per 10 ares, 21st day after the application, index 0-5 of Table 47;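 further: grade of growth control; 5 = at least 90%; 4 = 70 to 90%; 3 = 50 to 70%; 2 = 30 to 50%; 1 = 10 to 30%; 0 = under 10%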
Summary of the method: (§1)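 Scoring of herbicidal effect came 21 days after application of 100 g active ingredient per 10 ares to flooded (3 cm) paddy-soil pots sown with barnyardgrass, monochoria and bulrush, kept in a greenhouse.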

[2] = tested on: bulrush (Sc); test: as above; details: 100 g of the active ingredient per 10 ares, 21st day after the application, index 0-5 of Table 47;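 further: grade of growth control; 5 = at least 90%; 4 = 70 to 90%; 3 = 50 to 70%; 2 = 30 to 50%; 1 = 10 to 30%; 0 = under 10%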
Summary of the method: as §1

[3] = tested on: monochoria (Mo); test: as above; details: 100 g of the active ingredient per 10 ares, 21st day after the application, index 0-5 of Table 47;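 further: grade of growth control; 5 = at least 90%; 4 = 70 to 90%; 3 = 50 to 70%; 2 = 30 to 50%; 1 = 10 to 30%; 0 = under 10%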
Summary of the method: as §1

[4] = tested on: Digitaria ciliaris (Di); test: Test Example 2: herbicidal effects by upland field soil treatment; details: 100 g of the active ingredient per 10 ares, 21st day after the application, index 0-5 of Table 47;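 further: grade of growth control; 5 = at least 90%; 4 = 70 to 90%; 3 = 50 to 70%; 2 = 30 to 50%; 1 = 10 to 30%; 0 = under 10%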
From the text: (§2) (Test on Herbicidal Effects by Upland Field Soil Treatment)

[5] = tested on: barnyardgrass (Ec); test: as above; details: 100 g of the active ingredient per 10 ares, 21st day after the application, index 0-5 of Table 47
From the text: as §2

[6] = tested on: common lambsquarters (Ch); test: as above; details: 100 g of the active ingredient per 10 ares, 21st day after the application, index 0-5 of Table 47
From the text: as §2

[7] = tested on: pale smartweed (Po); test: as above; details: 100 g of the active ingredient per 10 ares, 21st day after the application, index 0-5 of Table 47
From the text: as §2

[8] = tested on: rice flatsedge (Ci); test: as above; details: 100 g of the active ingredient per 10 ares, 21st day after the application, index 0-5 of Table 47
From the text: as §2

[9] = tested on: slender amaranth (Am); test: as above; details: 100 g of the active ingredient per 10 ares, 21st day after the application, index 0-5 of Table 47
From the text: as §2

[10] = tested on: Diaitaria ciliaris (Di); test: Test Example 3: herbicidal effects by upland field foliage treatment; design: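 grade of growth control; 5 = at least 90%; 4 = 70 to 90%; 3 = 50 to 70%; 2 = 30 to 50%; 1 = 10 to 30%; 0 = under 10%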; details: 100 g of the active ingredient per 10 ares, evaluated on the 14th day after treatment
Summary of the method: (§3)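 Readout: visual herbicidal rating per defined standards, 14th day after treatment. Plants sown in sand (pot area 120 cm^2), soil-covered, greenhouse-cultured for 2 weeks prior to foliage application, then greenhouse-grown until scoring.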

[11] = tested on: barnyardgrass (Ec); test: as above; design: scale not given here; details: 100 g of the active ingredient per 10 ares, evaluated on the 14th day after treatment
Summary of the method: as §3

[12] = tested on: common lambsquarters (Ch); test: as above; design: scale not given here; details: 100 g of the active ingredient per 10 ares, evaluated on the 14th day after treatment
Summary of the method: as §3

[13] = tested on: pale smartweed (Po); test: as above; design: scale not given here; details: 100 g of the active ingredient per 10 ares, evaluated on the 14th day after treatment
Summary of the method: as §3

[14] = tested on: rice flatsedge (Ci); test: as above; design: scale not given here; details: 100 g of the active ingredient per 10 ares, evaluated on the 14th day after treatment
Summary of the method: as §3

[15] = tested on: slender amaranth (Am); test: as above; design: scale not given here; details: 100 g of the active ingredient per 10 ares, evaluated on the 14th day after treatment
Summary of the method: as §3

[16] = tested on: cotton (Go); test: Test Example 4: crop plant selectivity by upland field soil treatment (cotton), phytotoxicity; design: scale not given here; details: evaluated 21st day after application
Summary of the method: (§4)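 Upland soil-treatment selectivity test: scoring on day 21 post-application in a greenhouse, rating crop phytotoxicity on cotton and herbicidal effect on co-sown weeds. Seeds were sown in sand-filled pots and covered with soil before treatment.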

[17] = tested on: China jute (Ab); test: Test Example 4: crop plant selectivity by upland field soil treatment (cotton), herbicidal effects; design: scale not given here; details: evaluated 21st day after application
Summary of the method: as §4

[18] = tested on: common lambsquarters (Ch); test: as above; design: scale not given here; details: evaluated 21st day after application
Summary of the method: as §4

[19] = tested on: green foxtail (Se); test: as above; design: scale not given here; details: evaluated 21st day after application
Summary of the method: as §4

[20] = tested on: pale smartweed (Po); test: as above; design: scale not given here; details: evaluated 21st day after application
Summary of the method: as §4

[21] = tested on: slender amaranth (Am); test: as above; design: scale not given here; details: evaluated 21st day after application
Summary of the method: as §4

[22] = tested on: wheat (Tr); test: Test Example 5: crop plant selectivity by upland field soil treatment (wheat), phytotoxicity; design: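 grade of crop injury; 5 = at least 90%; 4 = 70 to 90%; 3 = 50 to 70%; 2 = 30 to 50%; 1 = 10 to 30%; 0 = under 10%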; details: dose 1.6 g ai/10a, 21st day after application
Summary of the method: (§5)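 Pots of sand sown with wheat and weeds (incl. Digitaria ciliaris, green foxtail, slender amaranth), seeds covered with soil, soil-applied treatment. Grown in greenhouse; herbicidal effect and crop phytotoxicity scored visually on day 21 after application against a rating scale.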

[23] = tested on: China jute (Ab); test: Test Example 5: crop plant selectivity by upland field soil treatment (wheat), herbicidal effects; design: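 grade of growth control; 5 = at least 90%; 4 = 70 to 90%; 3 = 50 to 70%; 2 = 30 to 50%; 1 = 10 to 30%; 0 = under 10%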; details: dose 1.6 g ai/10a, 21st day after application
Summary of the method: as §5

[24] = tested on: common lambsquarters (Ch); test: as above; design: scale not given here; details: dose 1.6 g ai/10a, 21st day after application
Summary of the method: as §5

[25] = tested on: green foxtail (Se); test: as above; design: scale not given here; details: dose 1.6 g ai/10a, 21st day after application
Summary of the method: as §5

[26] = tested on: pale smartweed (Po); test: as above; design: scale not given here; details: dose 1.6 g ai/10a, 21st day after application
Summary of the method: as §5

[27] = tested on: slender amaranth (Am); test: as above; design: scale not given here; details: dose 1.6 g ai/10a, 21st day after application
Summary of the method: as §5

[28] = tested on: soybean (Gl); test: Test Example 6: crop plant selectivity by upland field soil treatment (soybean), phytotoxicity; design: scale not given here; details: dose 1.6 g ai/10a, 21st day after application
Description: (§6) (Test on Crop Plant Selectivity by Upland Field Soil Treatment)
(§7) In a plastic pot (surface area: 600 cm^2) filled with sand, soybean (Gl), Diaitaria ciliaris (Di), green foxtail (Se), Johnsongrass (So), pale smartweed (Po), slender amaranth (Am), common lambsquarters (Ch) and China jute (Ab) were sown and covered with soil. […] The plants were then cultured in a green house, and the evaluation of the herbicidal effects and phytotoxicity was conducted on the 21st day after the application in accordance with the standards as identified in Table 47. Symbol—represents “not tested”.

[29] = tested on: China jute (Ab); test: Test Example 6: crop plant selectivity by upland field soil treatment (soybean), herbicidal effects; design: scale not given here; details: dose 1.6 g ai/10a, 21st day after application
Description: as §6, §7

[30] = tested on: common lambsquarters (Ch); test: as above; design: scale not given here; details: dose 1.6 g ai/10a, 21st day after application
Description: as §6, §7

[31] = tested on: green foxtail (Se); test: as above; design: scale not given here; details: dose 1.6 g ai/10a, 21st day after application
Description: as §6, §7

[32] = tested on: pale smartweed (Po); test: as above; design: scale not given here; details: dose 1.6 g ai/10a, 21st day after application
Description: as §6, §7

[33] = tested on: slender amaranth (Am); test: as above; design: scale not given here; details: dose 1.6 g ai/10a, 21st day after application
Description: as §6, §7

[34] = tested on: corn (Ze); test: Test Example 7: crop plant selectivity by upland field soil treatment (corn), phytotoxicity; design: scale not given here; details: 21st day after application
Description: as §6
(§8) In a plastic pot (surface area: 600 cm^2) filled with sand, corn (Ze), green foxtail (Se), pale smartweed (Po), slender amaranth (Am), common lambsquarters (Ch) and China jute (Ab) were sown and covered with soil. […] The plants were then cultured in a green house, and the evaluation of the herbicidal effects and phytotoxicity was conducted on the 21st day after the application in accordance with the standards as identified in Table 47.

[35] = tested on: China jute (Ab); test: Test Example 7: crop plant selectivity by upland field soil treatment (corn), herbicidal effects; design: scale not given here; details: 21st day after application
Description: as §6, §8

[36] = tested on: common lambsquarters (Ch); test: as above; design: scale not given here; details: 21st day after application
Description: as §6, §8

[37] = tested on: green foxtail (Se); test: as above; design: scale not given here; details: 21st day after application
Description: as §6, §8

[38] = tested on: pale smartweed (Po); test: as above; design: scale not given here; details: 21st day after application
Description: as §6, §8

[39] = tested on: slender amaranth (Am); test: as above; design: scale not given here; details: 21st day after application
Description: as §6, §8

## C#CC(C)Oc1cc(-c2ccc(C(F)(F)F)n(C)c2=O)c(F)cc1Cl (stereo not drawn) [1-17]
[1]
  Herbicidal effects Ec: 5
[2]
  Herbicidal effects Sc: 5
[3]
  Herbicidal effects Mo: 5
[4]
  Herbicidal effects Di: 5
[5]
  Herbicidal effects Ec: 5
[6]
  Herbicidal effects Ch: 5
[7]
  Herbicidal effects Po: 5
[8]
  Herbicidal effects Ci: 5
[9]
  Herbicidal effects Am: 5
[10]
  Herbicidal effects Di: 5
[11]
  Herbicidal effects Ec: 5
[12]
  Herbicidal effects Ch: 5
[13]
  Herbicidal effects Po: 5
[14]
  Herbicidal effects Ci: 5
[15]
  Herbicidal effects Am: 5
[16]; dose 1.6 g ai/10 a
  Phytotoxicity Go: 0
[16]; dose 6.3 g ai/10 a
  Phytotoxicity Go: 0
[17]; dose 1.6 g ai/10 a
  Herbicidal effects Ab: 5
[17]; dose 6.3 g ai/10 a
  Herbicidal effects Ab: 4
[18]; dose 1.6 g ai/10 a
  Herbicidal effects Ch: 5
[18]; dose 6.3 g ai/10 a
  Herbicidal effects Ch: 5
[19]; dose 1.6 g ai/10 a
  Herbicidal effects Se: 5
[19]; dose 6.3 g ai/10 a
  Herbicidal effects Se: 5
[20]; dose 1.6 g ai/10 a
  Herbicidal effects Po: 5
[20]; dose 6.3 g ai/10 a
  Herbicidal effects Po: 5
[21]; dose 1.6 g ai/10 a
  Herbicidal effects Am: 5
[21]; dose 6.3 g ai/10 a
  Herbicidal effects Am: 5
[22]
  Phytotoxicity Tr: 1
[23]
  Herbicidal effects Ab: 5
[24]
  Herbicidal effects Ch: 5
[25]
  Herbicidal effects Se: 5
[26]
  Herbicidal effects Po: 5
[27]
  Herbicidal effects Am: 5
[28]
  Phytotoxicity Gl: 0
[29]
  Herbicidal effects Ab: 5
[30]
  Herbicidal effects Ch: 5
[31]
  Herbicidal effects Se: 5
[32]
  Herbicidal effects Po: 5
[33]
  Herbicidal effects Am: 5
[34]; dose 1.6 g ai/10a
  Phytotoxicity Ze: 1
[34]; dose 6.3 g ai/10a
  Phytotoxicity Ze: 1
[35]; dose 1.6 g ai/10a
  Herbicidal effects Ab: 5
[35]; dose 6.3 g ai/10a
  Herbicidal effects Ab: 4
[36]; dose 1.6 g ai/10a
  Herbicidal effects Ch: 5
[36]; dose 6.3 g ai/10a
  Herbicidal effects Ch: 5
[37]; dose 1.6 g ai/10a
  Herbicidal effects Se: 5
[37]; dose 6.3 g ai/10a
  Herbicidal effects Se: 5
[38]; dose 1.6 g ai/10a
  Herbicidal effects Po: 5
[38]; dose 6.3 g ai/10a
  Herbicidal effects Po: 5
[39]; dose 1.6 g ai/10a
  Herbicidal effects Am: 5
[39]; dose 6.3 g ai/10a
  Herbicidal effects Am: 5
